Experimental data as given in patent EP2030621A1, “Novel substituted pyrimidines as cysteine protease inhibitors” (GLAXO GROUP LIMITED, priority 2007, dated 2009).
Counter-ions that a name gives are not always drawn. Like-named read-outs stand apart in the source and are kept apart here.

Columns and labels:
[1] = tested on: Plasmodium falciparum parasite; test: Whole cell assay: whole cell activity against the parasite; assay type: cell-based
[2] = target: Falcipain-3 (Plasmodium falciparum, UniProt Q8IIL0); test: Falcipain-3 enzymatic assay (fluorogenic peptide substrate, quenched endpoint read); assay type: biochemical
Method: (§1) 1 Determination of Falcipain-2, Falcipain-3, Vivapain-2, Cathepsin K Cathepsin S, Cathepsin L, and Cathepsin B proteolytic catalytic activity
(§2) Assays for Falcipain-2, Faicipain-3, and Vivapain-2 are carried out with parasitic recombinant enzymes. Cathepsins K, S, L, and B are carried out with human recombinant enzymes. Standard assay conditions for the determination of kinetic constants used a fluorogenic peptide substrate, typically H-D-VLR-AFC (Falcipain-2, Falcipain-3, Vivapain-2), Z-FR-AFC (Cathepsin K, L, B), or KQKLR-AMC (Cathepsin S) and are determined in 100 mM sodium acetate, pH 5.5, containing 10 mM DTT and 0.5 mM CHAPS (Falcipain-2, Falcipain-3, Vivapain-2), and 100 mM sodium acetate, pH 5.5, containing 5 mM L-cysteine, 1mM CHAPS and 5mM EDTA (Cathepsin K, L, B), or 50mM MES, pH 6.5, containing 0.5mM CHAPS, 10mM L-CYS, 5mM EDTA (Cathepsin S). Stock substrate solutions are prepared at 20 mM in DMSO. The activity assays contained 30 uM substrate (Falcipain-2, Falcipain-3, Vivapain-2), 20 uM substrate (Cathepsin K), 25uM substrate (Cathepsin B), 5uM substrate (Cathepsin L), and 30uM substrate (Cathepsin S). All assays contained 1% DMSO. […] All assays are conducted at ambient temperature as end point assays being quenched after 60 minutes with the exception of Cathepsin S at 90 minutes, with 16.6 uM E-64 in 1% DMSO. Product formation (AFC or AMC) is determined from fluorescence (excitation at 405nm; emission at 530nm, AFC, or excitation at 360 nm; emission at 460 nm, AMC) monitored with a LJL Aquest (Molecular Devices) fluorescent plate reader. In the case of kinetic reads (used in mechanism of action studies), the reaction is not quenched but is read in the plate reader every 3 minutes for approximately 90 minutes. In addition, the mechanism of action studies for Falcipain-2 utilize Z-LR-AMC as the substrate. Product formation is determined from the fluorescence of AMC, measured with a LJL Acquest (Molecular Devices) fluorescent plate reader (excitation at 360nm; emission at 460nm).
(§3) Potential inhibitors are evaluated using the quenched read (endpoint) method. Assays are carried out in the presence of variable concentrations of test compound. Reactions are initiated by addition of enzyme and substrate to wells containing inhibitor stamped in 100% DMSO. For endpoint assays, the reaction is quenched with the addition of E64. Dose response data is fit to an IC50 curve with preset fitting tools according to equation 1: y = a + (b-a)/(1 + (10^x /10^c ())^d ) [formula] where y is the response at a particular inhibitor concentration x, a is the minimum response value, b is the maximum response value, c is the IC50, and d is the slope of the IC50 curve. […]. For a more direct measurement of the KI and the binding mechanism, we performed mechanism of action studies that included a titration of substrate and inhibitor with a kinetic read. […]

[3] = target: Falcipain-2 (Plasmodium falciparum, UniProt Q8I6U4); test: Falcipain-2 enzymatic assay (fluorogenic peptide substrate, quenched endpoint read); assay type: biochemical
Method: as §1, §2, §3

[4] = parasitic recombinant enzyme, 30 uM H-D-VLR-AFC, pH 5.5, quenched after 60 minutes, read-out: Falcipain-2 (IC50)
[5] = parasitic recombinant enzyme, 30 uM H-D-VLR-AFC, pH 5.5, quenched after 60 minutes, read-out: Falcipain-3 (IC50)

Chain of Falcipain-3 (Q8IIL0 243-492): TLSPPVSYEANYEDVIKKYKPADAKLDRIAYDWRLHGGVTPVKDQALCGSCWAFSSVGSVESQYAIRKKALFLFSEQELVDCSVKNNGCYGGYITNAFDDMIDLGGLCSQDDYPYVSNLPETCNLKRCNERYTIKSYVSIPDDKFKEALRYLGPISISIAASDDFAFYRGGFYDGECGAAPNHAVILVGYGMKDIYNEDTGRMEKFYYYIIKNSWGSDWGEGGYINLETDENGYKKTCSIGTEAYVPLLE
Chain of Falcipain-2 (Q8I6U4 244-484): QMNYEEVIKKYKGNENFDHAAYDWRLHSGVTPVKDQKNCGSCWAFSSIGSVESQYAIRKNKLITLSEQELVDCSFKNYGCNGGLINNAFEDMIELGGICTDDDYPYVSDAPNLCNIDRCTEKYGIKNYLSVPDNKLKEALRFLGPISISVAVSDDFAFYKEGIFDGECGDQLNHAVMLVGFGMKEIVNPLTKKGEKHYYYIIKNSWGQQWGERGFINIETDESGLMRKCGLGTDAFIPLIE

Row | Compound | IC50 ([1]; Plasmodium falciparum) [nM] | other results
1 | CN1CCN(Cc2ccc(C(=O)NN(c3nc(C#N)ncc3Br)C3CCCC3)cc2)CC1 [Example 1, N'-(5-bromo-2-cyano-4-pyrimidinyl)-N'-cyclopentyl-4-[(4-methyl-1-piperazinyl)methyl]benzohydrazide trifluoroacetate] | 15 to 150 | IC50 [2]: 15 to 150 nM
2 | CN1CCC(CN2CCN(Cc3cccc(C(=O)NN(c4nc(C#N)ncc4Br)C4CCCC4)c3)CC2)CC1 [Example 15, N'-(5-bromo-2-cyano-4-pyrimidinyl)-N'-cyclopentyl-3-({4-[(1-methyl-4-piperidinyl)methyl]-1-piperazinyl}methyl)benzohydrazide trifluoroacetate] | 2.5 to 15 | IC50 [2]: 15 to 150 nM
3 | CN1CCN(C2CCN(Cc3ccc(C(=O)NN(c4nc(C#N)ncc4Br)C4CCOCC4)cc3)CC2)CC1 [Example 29, N'-(5-Bromo-2-cyano-4-pyrimidinyl)-4-{[4-(4-methyl-1-piperazinyl)-1-piperidinyl]methyl}-N'-(tetrahydro-2H-pyran-4-yl)benzohydrazide trifluoroacetate] | 15 to 150 | IC50 [2]: 15 to 150 nM
4 | CN1CCN(C(=O)C2CCN(Cc3ccc(C(=O)NN(c4nc(C#N)ncc4Cl)C4CCOCC4)cc3)CC2)CC1 [Example 36, N'-(5-Chloro-2-cyano-4-pyrimidinyl)-4-({4-[(4-methyl-1-piperazinyl)carbonyl]-1-piperidinyl}methyl)-N'-(tetrahydro-2H-pyran-4-yl)henzohydrazide trifluoroacetate] | 15 to 150 | IC50 [3]: 1 to 2.5 nM
5 | CC(=O)N1CCC(N(NC(=O)c2ccc(CN3CCN(C)CC3)cc2)c2nc(C#N)ncc2Br)CC1 [Example 37, N'-(1-acetyl-4-piperidinyl)-N'-(5-bromo-2-cyano-4-pyrimidinyl)-4-[(4-methyl-1-piperazinyl)methyl]benzohydrazide trifluoroacetate] | 15 to 150 | IC50 [3, 4]: < 1 nM; IC50 [2, 5]: 15 to 150 nM
6 | CC(=O)N1CCC(N(NC(=O)c2ccc(CN3CCC(N4CCN(C)CC4)CC3)cc2)c2nc(C#N)ncc2Br)CC1 [Example 38, N'-(1-acetyl-4-piperidinyl)-N'-(5-bromo-2-cyano-4-pyrimidinyl)-4-{[4-(4-methyl-1-piperazinyl)-1-piperidinyl]methyl}benzohydrazide trifluoroacetate] | 150 to 250 | IC50 [2]: 15 to 150 nM
7 | CN1CCN(Cc2ccc(C(=O)NN(c3nc(C#N)ncc3Br)C3CCOCC3)cc2)CC1 [Example 42, N'-(5-bromo-2-cyano-4-pyrimidinyl)-4-[(4-methyl-1-piperazinyl)methyl]-N'-(tetrahydro-2H-pyran-4-yl)benzohydrazide trifluoroacetate] | 15 to 150 | IC50 [3]: 1 to 2.5 nM
8 | CN1CCN(Cc2ccc(C(=O)NN(c3nc(C#N)ncc3Cl)C3CCCC3)cc2)CC1 [Example 50, N'-(5-chloro-2-cyano-4-pyrimidinyl)-N'-cyclopentyl-4-[(4-methyl-1-piperazinyl)methyl]benzohydrazide trifluoroacetate] | 15 to 150 | IC50 [3]: 1 to 2.5 nM
9 | CC(C)CCN(C)Cc1ccc(C(=O)NN(c2nc(C#N)ncc2Cl)C2CCCC2)cc1 [Example 63, N'-(5-chloro-2-cyano-4-pyrimidinyl)-N'-cyclopentyl-4-{[methyl(3-methylbutyl)amino]methyl}benzohydrazide trifluoroacetate] | 2.5 to 15 | IC50 [3, 4]: < 1 nM; IC50 [2, 5]: 2.5 to 15 nM
10 | CN(Cc1ccc(C(=O)NN(c2nc(C#N)ncc2Cl)C2CCCC2)cc1)C(C)(C)C [Example 73, N'-(5-chloro-2-cyano-4-pyrimidinyl)-N'-cyclopentyl-4-{[(1,1-dimethylethyl)(methyl)amino]methyl}benzohydrazide trifluoroacetate] | 2.5 to 15 | 
11 | CN1CCN(c2ncc(C(=O)NN(c3nc(C#N)ncc3Cl)C3CCCC3)s2)CC1 [Example 77] |  | IC50 [1]: 15 to 150 nM
12 | CC(=O)N1CCC(N(NC(=O)OC(C)(C)C)c2nc(C#N)ncc2Br)CC1 [Example 79, 1,1-dimethylethyl 2-(1-acetyl-4-plperidinyl)-2-(5-bromo-2-cyano-4-pyrimidinyl)hydrazinecarboxylate] |  | IC50 [1]: 15 to 150 nM

Second part, led by results:

Row | IC50 ([1]; Plasmodium falciparum) [nM] | Compound | other results
13 | 15 to 150 | CCN(C)Cc1ccc(C(=O)NN(c2nc(C#N)ncc2Cl)C2CCCC2)cc1 [Example 74, N'-(5-chloro-2-cyano-4-pyrimidinyl)-N'-cyclopentyl-4-{[ethyl(methyl)amino]methyl}benzohydrazide trifluoroacetate] | 
14 | 15 to 150 | CC(C)N(Cc1ccc(C(=O)NN(c2nc(C#N)ncc2Cl)C2CCCC2)cc1)C1CCCCC1 [Example 75, N'-(5-chloro-2-cyano-4-pyrimidinyl)-4-{[cyclohexyl(1-methylethyl)amino]methyl}-N'-cyclopentylbenzohydrazide trifluoroacetate] | 
15 | 15 to 150 | CN(Cc1ccc(C(=O)NN(c2nc(C#N)ncc2Cl)C2CCCC2)cc1)CC(O)CO (stereo not drawn) [Example 76, N'-(5-chloro-2-cyano-4-pyrimidinyl)-N'-cyclopentyl-4-{[(2,3-dihydroxypropyl)(methyl)amino]methyl}benzohydrazide trifluoroacetate] | 
16 | 15 to 150 | CN1CCN(c2cccc(C(=O)NN(c3nc(C#N)ncc3Cl)C3CCCC3)n2)CC1 [Example 78, N'-(5-chloro-2-cyano-4-pyrimidinyl)-N'-cyclopentyl-6-(4-methyl-1-piperazinyl)-2-pyridinecarbohydrazide trifluoroacetate] | 
17 | 15 to 150 | CCCN1CCN(c2ccc(C(=O)NN(c3nc(C#N)ncc3Br)C3CCCCC3)cc2)CC1 [Example 80, N'-(5-bromo-2-cyano-4-pyrimidinyl)-N'-cyclohexyl-4-(4-propyl-1-piperazinyl)benzohydrazide trifluoroacetate] | 
18 | 2.5 to 15 | CCN(CCCNC(=O)OC(C)(C)C)Cc1ccc(C(=O)NN(c2nc(C#N)ncc2Cl)C2CCCC2)cc1 [Example 81, 1,1-dimethylethyl {3-[[(4-{[2-(5-chloro-2-cyano-4-pyrimidinyl)-2-cyclopentylhydrazino]carbonyl}phenyl)methyl](ethyl)amino]propyl}carbamate] | 
19 | > 400 | CN1CCN(Cc2ccc(C(=O)NN(CC(C)(C)C)c3nc(C#N)ncc3Br)cc2)CC1 [comparative Example 39, N'-(5-bromo-2-cyano-4-pyrimidinyl)-N'-(2,2-dimethylpropyl)-4-[(4-methyl-1-piperazinyl)methyl]benzohydrazide trifluoroacetate, reference compound] | 
